Like-named read-outs stand apart in the source and are kept apart here.
Test system: IPF-rc-stimulated primary human small airway epithelial cells (SAEC)
Test: Biomarker release of IPF-rc-stimulated small airway epithelial cells (ELISA of supernatants)
Format: cell-based
Details: for inhibition at 10 µM / IC50: Homo sapiens; for inhibition at 10 µM: SAEC, highest concentration 10 μM; for IC50: SAEC from 5 donors, 30 min pre-stimulation, supernatants 72 hrs after stimulation
Description: Small airway epithelial cells of primary human origin at passage 4 were seeded in PneumaCult-Ex Plus complete medium onto rat tail collagen type I (30 μg/mL in PBS) coated 24-well plates.
After incubation for 24 hrs at 37° C. and 5% CO2 cells were pre-stimulated with the PDE4-inhibitor of formula A′ for 30 min in different concentrations in PneumaCult-Ex Plus starving medium.
Afterwards an IPF-relevant cytokine cocktail (Schruf E, Schroeder V, Le H Q, Schönberger T, Raedel D, Stewart E L, Fundel-Clemens K, Bluhmki T, Weigle S, Schuler M, Thomas M J, Heilker R, Webster M J, Dass M, Frick M, Stierstorfer B, Quast K, Garnett J P. Recapitulating idiopathic pulmonary fibrosis related alveolar epithelial dysfunction in a human iPSC-derived air-liquid interface model. FASEB J. 2020 June; 34(6):7825-7846) was added to induce fibrotic changes. 72 hrs after stimulation supernatants were collected and analyzed using R&D DuoSet ELISAs following the manufacturers protocol.
To determine the inhibitory potency of the PDE4-inhibitor of formula A′ on biomarker release of IPF-rc-stimulated primary human small airway epithelial cells, the supernatants of the cell culture from 5 different donors were analyzed.

[O-][S@+]1CCc2nc(N3CCC(c4ncc(Cl)cn4)CC3)nc(NC3(CO)CCC3)c21 [Compound of formula A′]
inhibition at 10 µM (read-out: maximal inhibition of CTGF release): 75% | inhibition at 10 µM (read-out: maximal inhibition of MMP7 release): 63% | inhibition at 10 µM (read-out: maximal inhibition of OPN release): 67% | inhibition at 10 µM (read-out: maximal inhibition of sICAM release): 39% | IC50 (read-out: IC50 of IPF-rc-induced release of CTGF): ~370 nM | IC50 (read-out: IC50 of IPF-rc-induced release of MMP7): ~4400 nM | IC50 (read-out: IC50 of IPF-rc-induced release of OPN): ~1100 nM | IC50 (read-out: IC50 of IPF-rc-induced release of sICAM): ~537 nM | inhibition of the release of PAI1 (plasminogen activator inhibitor 1) (IPF-rc-stimulated SAEC): concentration dependent manner

Source: patent US20240142467A1, “Use of Biomarkers in the Treatment of Fibrotic Conditions with a PDE4B-inhibitor” (Boehringer Ingelheim International GmbH, priority 2022, published 2024)
